Experimental data taken from US9114067B2, “Local administration of gallium compositions to treat pain” (priority 2006, dated 2015).
Like-named read-outs stand apart in the source and are kept apart here.

Columns and labels:
[1] = system: painful diabetic neuropathy; settings: Wiffen et al. 2005; cited from earlier work
[2] = system: postherpetic neuralgia; experiment: Case report: gallium maltolate cream to treat postherpetic neuralgia (person); type: in vivo, human; settings: tried over about three years before gallium treatment
Method: A person had been experiencing postherpetic neuralgia with erythema on the left side of their face for approximately three years. The pain was so severe that it interfered with sleep and other daily activities. During that period they had tried numerous systemic analgesics to relieve the pain, including amitriptyline 25 mg BID, methadone 5 mg BID, carbamazepine 100 mg BID, gabapentin 200 mg QD, oxycodone 20 mg BID, naproxen, acetaminophen, and intravenous hydrogen peroxide. […] They then began treatment using the topical gallium maltolate formulation of Example 1, above. This formulation was applied three times per day to the affected area, at about 8 AM, 1 PM, and 9 PM, every day for four weeks. The formulation was administered by dipping a fingertip lightly into the formulation, and then smearing the formulation from the fingertip onto the affected area.

[3] = system: peripheral neuropathic pain; settings: cited from earlier work
[4] = system: vaginal inflammation; experiment: Case report: gallium maltolate cream to treat pain and itching associated with vaginal inflammation (person); type: in vivo, human; settings: for effect of earlier topical treatment on vaginal inflammation symptoms: same patient before gallium treatment
[5] = system: non-malignant neuropathic pain; settings: cited from earlier work
[6] = system: postherpetic neuralgia; settings: cited from earlier work
[7] = meta-analysis, Eisenberg et al. 2005

## O=C1NC(=O)C(c2ccccc2)(c2ccccc2)N1 [phenytoin]
[1]
  NNT for moderate pain relief: 2.1

## CN(C)CCC=C1c2ccccc2CCc2ccccc21 [amitriptyline]
[2]
  pain relief from earlier treatments tried by the same patient: None of these treatments produced significant pain relief
[3]; Saarto and Wiffen 2005
  NNT (number needed to treat) for moderate pain relief: 2
[3]; explanation of NNT 2
  share of those treated with at least moderate pain relief: 50%

## CCOC(=O)c1ccc(N)cc1 [benzocaine]
[4]
  effect of earlier topical treatment on vaginal inflammation symptoms: little effect

## COc1ccc2cc([C@H](C)C(=O)O)ccc2c1 [naproxen]
[2]
  pain relief from earlier treatments tried by the same patient: None of these treatments produced significant pain relief

## CN1CC[C@]23c4c5ccc(O)c4O[C@H]2[C@@H](O)C=C[C@H]3[C@H]1C5 [morphine]
[5]; in vivo
  efficacy in intermediate-term (8-56 day) studies: marginal efficacy
  efficacy in short-term (24 hour) studies: marginal to no efficacy

## NCC1(CC(=O)O)CCCCC1 [gabapentin]
[1]
  NNT for moderate pain relief: 3.8
[6]; postherpetic neuralgia, Wiffen et al. 2005
  NNT for moderate pain relief: 3.2
[2]
  pain relief from earlier treatments tried by the same patient: None of these treatments produced significant pain relief

## CN1CC[C@]23CCCC[C@H]2[C@H]1Cc1ccc(O)cc13 [levorphanol]
[5]; [7]
  efficacy in intermediate-term (8-56 day) studies: marginal efficacy
  efficacy in short-term (24 hour) studies: marginal to no efficacy
[6]; Rowbotham et al. 2003
  subjects who dropped out of the study due to drug side effects: 31%
[6]; high dose, Rowbotham et al. 2003
  average reduction in pain: 33%
[6]; low dose, Rowbotham et al. 2003
  average reduction in pain: 14%

## NC(=O)N1c2ccccc2C=Cc2ccccc21 [carbamazepine]
[1]
  NNT for moderate pain relief: 2.3
[2]
  pain relief from earlier treatments tried by the same patient: None of these treatments produced significant pain relief

## CC(=O)Nc1ccc(O)cc1 [acetaminophen]
[2]
  pain relief from earlier treatments tried by the same patient: None of these treatments produced significant pain relief

## Clc1ccc(COC(Cn2ccnc2)c2ccc(Cl)cc2Cl)c(Cl)c1 (stereo not shown) [miconazole]
[4]; same patient
  local tolerability of earlier topical treatment: irritating
[4]
  effect of earlier topical treatment on vaginal inflammation symptoms: ineffective

## CCC(=O)C(CC(C)N(C)C)(c1ccccc1)c1ccccc1 (stereo not shown) [methadone]
[5]; [7]
  efficacy in intermediate-term (8-56 day) studies: marginal efficacy
  efficacy in short-term (24 hour) studies: marginal to no efficacy
[2]
  pain relief from earlier treatments tried by the same patient: None of these treatments produced significant pain relief

## OO [hydrogen peroxide]
[2]
  pain relief from earlier treatments tried by the same patient: None of these treatments produced significant pain relief

## COc1ccc2c3c1O[C@H]1C(=O)CC[C@@]4(O)[C@@H](C2)N(C)CC[C@]314 [oxycodone]
[5]; [7]
  efficacy in intermediate-term (8-56 day) studies: marginal efficacy
  efficacy in short-term (24 hour) studies: marginal to no efficacy
[2]
  pain relief from earlier treatments tried by the same patient: None of these treatments produced significant pain relief
